According to ChEMBL document CHEMBL5727727, “(Aza)pyridopyrazolopyrimidinones and indazolopyrimidinones and their use” (2020):

Assay: Plasma-Based Clot Lysis Assay: The clot-lysis test system configures the kinetics of clot formation and degradation in vitro and allows quantifying modulation of the process by selected test compounds.The test compounds were dissolved in 1% acetic acid and further complemented with an equal volume of DMSO. The resulting stock solutions were serially diluted in 0.5% acetic acid/50% DMSO. 1 μL aliquots of these solutions were placed into 384 well microplates (Greiner, black, transparent bottom), followed by 30 μL of diluted human citrated plasma (platelet-poor, final concentration: 5%; supplemented with fibrinogen, final concentration: 3 μM; dilution buffer: 20 mM HEPES, 150 mM NaCl, 0.01% Brij (pH 7)). The reactions were started by addition of 20 μL of CaCl2 (final concentration: 10 mM), and tPA (tissue plasminogen activator, final concentration: 0.2 nM) in dilution buffer, followed by an additional volume of 20 μL dilution buffer for improved mixing. The reactions were incubated at 37° C. Clot formation and degradation was monitored spectrophotometrically by kinetic optical density measurements at 405 nm. IC50 values were determined by comparing the resulting time courses with the time course of a blank control reaction.

SMILES | IC50 [nM]
O=c1cc(C2CCNCC2)n2nc3cc(F)cnc3c2[nH]1 | 21
O=c1cc(C2CCNCC2)n2nc3cncc(Br)c3c2[nH]1 | 100
Nc1cccc2nn3c(C4CCNCC4)cc(=O)[nH]c3c12 | 35
